Experimental data from US10617734B2, “STAT3 and ERK signal pathway inhibitor comprising mogrosides and analogs thereof” (BEIJING UNIVERSITY OF AGRICULTURE, priority 2014, dated 2020).

Columns and labels:
[1] = test system: phosphorylated ERK1/2 (P-ERK1/2); assay: Western Blotting of phosphorylated ERK1/2 in A875 cells; assay type: cell-based, human; conditions: melanoma A875 cells, 10 μmol/L, 24 hours
Method: (§1) The inhibition of the STAT3 and ERK signal pathways achieved by Mogroside I E1, Mogroside II A2 and mogrol was detected by Western Blotting, specifically:
Group 2: human melanoma A875 cells (1×10^6 cells/well) were inoculated into a 6-well culture plate for staying overnight, and 0 and 10 μmol/L of Mogroside I E1, Mogroside II A2 and mogrol were added respectively, and the culture was continued for 24 hours;
(§2) After the termination of the cell culture, the culture solution was removed, and the residue was washed with PBS (0.01 mol/L, pH 7.4), and then a cell lysis solution containing protease inhibitors was added at an amount of 50 μl/well, and the mixture was placed in an ice bath for lysis at 4° C. for 30 min and then centrifuged at 14000 r/min for 10 min, and then total proteins were obtained from the supernatant;
(§3) The protein concentrations were measured with bovine serum albumin (BSA) as the standard. 50 μg of the total proteins was separated by polyacrylamide gel electrophoresis with 12% […], electrophoretically transferred to a PVDF membrane (polyvinylidene fluoride membrane), and blocked for 1 h by 5% of skim milk (containing 0.1% of Tween 20), and then antibodies p-STAT3 (Tyr705) and p-Erk1/2 as well as β-actin were added, and the primary antibody was incubated at 4° C. overnight (β-actin was used as reference in loading amount); the membrane was washed for 3 times with TBS-T, 5 min each time; secondary antibody marked by horseradish peroxidase (HRP) was added for incubation at room temperature for 1 h, the membrane was washed for 3 times with a wash solution (TBS-T), 10 min each time, and then ECL was added for incubation in dark for 5 min, and subsequently, a fluorescence imaging analyzer was used for image development and scanning analysis, and the results of Western Blotting detection are shown in FIGS. 4 to 6.

[2] = test system: phosphorylated STAT3 (P-STAT3, Tyr705); assay: Western Blotting of phosphorylated STAT3 in K562 cells; assay type: cell-based, human; conditions: leukemia cells K562, 10 μmol/L, 24 hours
Method: as §1
Group 3: leukemia cells K562 (1×10^6 cells/well) were inoculated into a 6-well culture plate for staying overnight, and 0 and 10 μmol/L of Mogroside I E1 Mogroside II A2 and mogrol were added respectively, and the culture was continued for 24 hours;
as §2, §3

[3] = test system: cycle regulatory protein P21; assay: Western Blotting of P21 in U937 cells; assay type: cell-based; conditions: 10 μmol/L, 24 h
Method: (§4) The STAT3 and ERK signal pathways can regulate cyclins and apoptosis genes, and in order to verify the effects of […] and mogrol, the expression status of downstream genes of STAT3 and ERK was detected, wherein the influences of the three mogrosides and analogs thereof, i.e. Mogrol I E1, Mogrol II A2 and mogrol, on Bcl-2 and P21 proteins in the histiocytic lymphoma U937 cells, human melanoma A875 cells and leukemia cells K562 were determined, respectively.
(§5) The regulation of Bcl-2 and P21 proteins by mogrosides and analog thereof to the was detected by Western Blotting, specifically: histiocytic lymphoma U937 cells, human melanoma A875 cells and leukemia cells K562 (1×10^6 cells/well) were inoculated into a 6-well culture plate overnight, and 0 and 10 μmol/L of the mogrosides and analogs thereof were added respectively, and kept cultured for 24 h. […]
(§6) The protein concentration was measured with bovine serum albumin (BSA) as the standard. 50 μg of the total proteins were separated by polyacrylamide gel electrophoresis with 12% SDS, and electrophoretically transferred to a PVDF membrane (polyvinylidene fluoride membrane), and blocked for 1 h by 5% of skim milk (containing 0.1% of Tween 20), and then antibodies P21, Bcl-2 and β-actin were added, wherein the primary antibody was incubated at 4° C. overnight (β-actin was used as reference loading amount); the membrane was washed for 3 times with TBS-T, 5 min each time; secondary antibody marked by horseradish peroxidase (HRP) was added for incubation at room temperature for 1 h, the membrane was washed with rinse solution (TBS-T) for 3 times, 10 min each time, and then ECL was added for incubation in dark for 5 min, and subsequently, a fluorescence imaging analyzer was used for image development and scanning analysis.

[4] = test system: anti-apoptotic protein Bcl-2; assay: Western Blotting of Bcl-2 in A875 cells; assay type: cell-based; conditions: human melanoma A875 cells, 10 μmol/L, 24 h
Method: as §4, §5, §6

[5] = test system: cycle regulatory protein P21; assay: Western Blotting of P21 in K562 cells; assay type: cell-based, human; conditions: leukemia cells K562, 10 μmol/L, 24 h
Method: as §4, §5, §6

leukemia cells K562 = assay: Cell cycle distribution, PI staining, flow cytometer; assay type: cell-based, human; conditions: leukemia cells K562, 10 μmol/L, 24 h
Text: The influences of Mogroside I E1, Mogroside II A2 and mogrol on the cell cycle distribution of the histiocytic lymphoma U937 cells, the human melanoma A875 cells and the leukemia cells K562.
The cell cycle arrest achieved by drugs is an important approach to the inhibition of cancer cell proliferation.

[6] = test system: human melanoma A875 cells; assay: Cell apoptosis, Annexin V-FITC/PI, flow cytometer; assay type: cell-based; conditions: 10 μmol/L, 24 h
Method: Mogroside I E1, Mogroside II A2 and mogrol) for 24 h, cells were collected and washed twice with 200 μl of cold PBS, and then the cells were collected again; 100 μl of binding buffer was added for re-suspending the cells, and after the addition of 2 μl of Annexin V-FITC and well mixing, the resulting mixture was placed in dark at room temperature for 10 min, and then 5 μl of propidium iodide (PI) was added and then well mixed; the mixture was placed in dark at room temperature for 10 min, and detected by flow cytometer, and the results are shown in FIGS. 13-15.

[7] = test system: human melanoma A875 cells; assay: MTT colorimetric experiment, cell growth inhibition; assay type: cell-based; conditions: melanoma A875 cells, 0.1, 1, 10, 100, 200 and 250 μmol/L, MTT after 24 h
Method: (§7) MTT colorimetric experiments were performed after 24 h, respectively: prior to the finish of each experiment, 15 μl of MTT solution in a concentration of 5 mg/ml was added to each well, and the culture was continued in dark at 37° C. for 4 h, then 150 μl of DMSO was added to each well and oscillating in a shaker for 10 min, and then the residue was placed in a microplate reader to detect the optical density OD) at 490 nm, and the inhibition rate was calculated according to the following formula: cell growth inhibition rate (control group OD490—test group OD490)/control group OD490×100%.

lymphoma U937 cells = assay: as above; assay type: cell-based; conditions: U937 cells, 0.1, 1, 10, 100, 200 and 250 μmol/L, MTT after 24 h
Method: as §7

C[C@H](CC[C@@H](O)C(C)(C)O)[C@H]1CC[C@@]2(C)[C@@H]3CC=C4[C@@H](CC[C@H](O)C4(C)C)[C@]3(C)[C@H](O)C[C@]12C [mogrol]
expression level of phosphorylated ERK1/2 (P-ERK1/2) [1]: significantly decreased
expression level of phosphorylated STAT3 (P-STAT3) [2]: significantly decreased
expression of cycle regulatory protein P21 [3]: significantly up-regulated
expression of anti-apoptotic protein Bcl-2 [4]: significantly down-regulated
expression of cycle regulatory protein P21 [5]: significantly up-regulated
cell cycle distribution (cell cycle arrest) (leukemia cells K562): arrested
cell apoptosis [6]: induce the apoptosis
cell growth inhibition rate [7]: inhibitory effect on the proliferation
cell growth inhibition rate (lymphoma U937 cells): inhibitory effect on the proliferation
